The structures appear in SMILES notation. Read-outs that look alike come from different tables or passages of the source. A value given as a limit tells only on which side of the number the result lay.

This note sets out measurements from patent US9029384B2, “Phosphatidylinositol 3-kinase inhibitors” (Gilead Calistoga LLC, priority 2012, dated 2015).

Experiment [1] deals with basophils. In words: Basophil activation in human whole blood (Flow2 CAST kit, CD63 positive cells). The note with it: basophils activated with anti-FcεRI mAb or fMLP, geometric mean. It counts as cell-based. The protocol:
Effect on basophil activation was measured in human whole blood using the Flow2 CAST® kit (Buhlmann Laboratories AG, Baselstrasse, Switzerland) following the protocol provided by the manufacturer with minor modifications. Human whole blood was collected into K2-EDTA venipuncture tubes. Whole blood samples were treated with either DMSO (0.3% final) or a serial dilution of compounds in DMSO for 60 minutes at 37° C. Basophils were then activated either with anti-FcεRI mAb or with fMLP. To activate basophils using the anti-FcεRI mAb; 50 μl of whole blood was mixed with 110 μl of stimulation buffer (B-BAT-STB) and 20 μl of anti-FcεRI (B-BAT-STCON). To activate basophils with fMLP; 50 μl of whole blood was mixed with 80 μl of stimulation buffer (B-BAT-STB) and 50 μl of fMLP (B-CCR-FMLP). Stimulation buffer was used as a negative control. 20 μl of the staining reagent (combination of anti-human CD63-FITC and anti-human CCR3-PE mAbs) was then added to each tube. […] Subsequently, erythrocytes were lysed and fixed by the addition of 2 ml of lysing solution (B-BAT-LYR) for 10 min at room temperature. Cells were pelleted by centrifugation at 1200 rpm for 10 min at room temperature in a swing-out rotor. Supernatant was aspirated and cell pellet resuspended in 400 μl of wash buffer. Flow cytometric analysis of the basophil activation was performed on a FC500MPL flow cytometer (Beckman Coulter Inc., Fullerton, Calif.). CCR3-staining and side scatter were applied to gate at least 200 basophils that expressed a high density of CCR3. The percent CD63 positive cells within the gated basophil population were determined in different treatment groups and normalized to the vehicle control (0.3% DMSO) with anti-FcεRI mAb of fMLP stimulus as 100%. Final compound concentration was adjusted to correct for dilution effect of added reagents. The EC50 values were calculated from the analysis of the dose-response curves to a four-parameter equation. All EC50 values represent geometric mean values and are reported in units of nM.

Experiment [2] addresses T1, PI3Kδ (Homo sapiens, UniProt O00329).
T1 construct: made in house
In words: Enzymatic activity of PI3K isoforms, TR-FRET assay (PIP3 formation). It counts as biochemical. As to conditions: read-out: IC50. An excerpt:
Enzymatic Activity of PI3K Isoforms
The TR-FRET assay was used to monitor formation of the product 3,4,5-inositol triphosphate molecule (PIP3) as it competed with fluorescently labeled PIP3 for binding to the GRP-1 pleckstrin homology domain protein. An increase in […] product results in a decrease in TR-FRET signal as the labeled fluorophore is displaced from the GRP-1 protein binding site.
Class I PI3K isoforms were expressed and purified as heterodimeric recombinant proteins. All assay reagents and buffers for the TR-FRET assay were purchased from Millipore. […] After an assay reaction time of 30 minutes at 25° C., reactions were terminated with a final concentration of 10 mM EDTA, 10 nM labeled-PIP3, and 35 nM Europium labeled GRP-1 detector protein before reading TR-FRET on an Envision plate reader (Ex: 340 nm; Em: 615/665 nm; 100 μs delay and 500 μs read window).
Data are normalized based on a positive (1 uM wortmanin) and negative (DMSO) controls. The α, β, δ, and γ IC50 values were calculated from the fit of the dose-response curves to a four-parameter equation. IC50 are reported in units of nM.
IC50 values were obtained for all PI3K isoforms (α, β, δ, and γ), and Table 2 summarizes the IC50 data collected for PI3Kδ in this Example B1.

Where [3] appears, read: PI3Kδ, TR-FRET, 2×Km ATP, 10 μM PIP2.

T1 sequence (O00329 whole entry): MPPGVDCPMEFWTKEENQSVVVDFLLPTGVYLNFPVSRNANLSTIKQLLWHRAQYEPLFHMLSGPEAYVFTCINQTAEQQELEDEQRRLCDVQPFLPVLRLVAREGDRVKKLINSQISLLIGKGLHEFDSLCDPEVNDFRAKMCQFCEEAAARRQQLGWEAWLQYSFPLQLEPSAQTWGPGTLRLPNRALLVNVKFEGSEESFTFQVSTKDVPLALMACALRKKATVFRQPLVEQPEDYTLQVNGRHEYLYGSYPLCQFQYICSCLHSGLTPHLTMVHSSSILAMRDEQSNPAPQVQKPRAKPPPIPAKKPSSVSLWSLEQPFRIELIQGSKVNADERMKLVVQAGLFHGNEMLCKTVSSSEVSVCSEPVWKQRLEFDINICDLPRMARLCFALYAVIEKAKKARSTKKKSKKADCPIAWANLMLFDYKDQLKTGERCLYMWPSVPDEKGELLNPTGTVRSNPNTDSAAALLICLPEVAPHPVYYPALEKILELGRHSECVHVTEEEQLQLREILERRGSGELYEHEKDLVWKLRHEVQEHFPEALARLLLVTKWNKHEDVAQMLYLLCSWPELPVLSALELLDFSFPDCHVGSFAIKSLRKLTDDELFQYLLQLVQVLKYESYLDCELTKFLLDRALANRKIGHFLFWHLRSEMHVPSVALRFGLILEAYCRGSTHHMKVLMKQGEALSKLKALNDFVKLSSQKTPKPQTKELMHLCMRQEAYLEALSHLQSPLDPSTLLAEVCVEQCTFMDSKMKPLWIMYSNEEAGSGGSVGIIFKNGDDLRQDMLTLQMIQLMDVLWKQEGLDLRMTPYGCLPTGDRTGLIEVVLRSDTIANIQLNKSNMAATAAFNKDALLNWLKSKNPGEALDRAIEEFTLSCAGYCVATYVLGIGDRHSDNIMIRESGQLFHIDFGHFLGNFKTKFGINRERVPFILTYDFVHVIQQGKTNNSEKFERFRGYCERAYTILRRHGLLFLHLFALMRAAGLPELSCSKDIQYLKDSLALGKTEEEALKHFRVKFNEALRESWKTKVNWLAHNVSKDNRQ
T1 sequence (P27986 whole entry partner): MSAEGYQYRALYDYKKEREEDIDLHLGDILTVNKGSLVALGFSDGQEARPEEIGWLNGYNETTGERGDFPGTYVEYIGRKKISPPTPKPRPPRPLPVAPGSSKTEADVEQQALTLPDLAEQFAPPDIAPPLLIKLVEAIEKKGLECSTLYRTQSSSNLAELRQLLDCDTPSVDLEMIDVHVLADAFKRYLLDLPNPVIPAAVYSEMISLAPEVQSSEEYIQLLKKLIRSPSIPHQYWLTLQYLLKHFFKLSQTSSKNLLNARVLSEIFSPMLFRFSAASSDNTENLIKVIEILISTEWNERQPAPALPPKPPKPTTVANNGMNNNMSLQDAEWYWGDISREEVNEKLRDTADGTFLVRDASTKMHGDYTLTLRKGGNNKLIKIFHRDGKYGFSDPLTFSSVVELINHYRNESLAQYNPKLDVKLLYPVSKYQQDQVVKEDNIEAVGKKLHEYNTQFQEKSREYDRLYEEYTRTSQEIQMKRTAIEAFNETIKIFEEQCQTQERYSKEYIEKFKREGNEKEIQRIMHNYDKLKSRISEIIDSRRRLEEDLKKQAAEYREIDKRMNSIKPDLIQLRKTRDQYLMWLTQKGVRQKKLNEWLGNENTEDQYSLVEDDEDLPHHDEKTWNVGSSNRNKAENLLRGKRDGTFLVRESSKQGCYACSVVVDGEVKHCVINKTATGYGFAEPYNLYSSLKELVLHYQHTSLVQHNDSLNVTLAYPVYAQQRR

With `CC(Nc1nc(N)nc(N)c1C#N)c1nc2cccc(Cl)c2c(=O)n1-c1cc(Cl)cc(C(F)F)c1` (single isomer, unassigned) [Compound 115a], the EC50 in experiment [1] (Homo sapiens) lay within 10 to 50 nM. For the same molecule, the IC50 in experiment [2] (setting [3]) fell in the range of 1 to 10 nM.

For `Cc1c(C(F)F)cccc1-n1c(C(C)Nc2nc(N)nc(N)c2C#N)nc2cccc(Cl)c2c1=O` (single isomer, unassigned) [Compound 189a-2], the EC50 in experiment [1] fell in the range of 1 to 10 nM. The IC50 in experiment [2] (setting [3]) is < 1 nM.

For the molecule `Cc1c(C(F)F)cccc1-n1c(C(C)Nc2nc(N)nc(N)c2C#N)nc2cccc(Cl)c2c1=O` (single isomer, unassigned) [Compound 189a-1], the EC50 in experiment [1] was > 50 nM. Besides, the IC50 in experiment [2] (setting [3]) was 10 to 50 nM.

As to `CC(Nc1nc(N)nc(N)c1C#N)c1nc2cccc(C#N)c2c(=O)n1-c1ccccc1` (single isomer, unassigned) [Compound 7a], in experiment [1] (Homo sapiens), the concentration for a half-maximal effect (EC50) was < 1 nM. Further, the half-maximal inhibitory concentration (IC50) in experiment [2] (setting [3]) lay within 1 to 10 nM.

For `CC(Nc1nc(N)nc(N)c1C#N)c1nc2c(F)cc(F)cc2c(=O)n1-c1cc(F)cc(F)c1` (single isomer, unassigned) [Compound 70a], the EC50 in experiment [1] (Homo sapiens) fell in the range of 1 to 10 nM. Besides, the IC50 in experiment [2] (setting [3]) fell in the range of 10 to 50 nM.

As to `CC(Nc1nc(N)nc(N)c1C#N)c1nc2c(F)ccc(F)c2c(=O)n1-c1cccc(F)c1` (single isomer, unassigned) [Compound 148a], the EC50 in experiment [1] (Homo sapiens) was < 1 nM. Besides, in experiment [2] (setting [3]), the IC50 is 1 to 10 nM.

For the molecule `CC(Nc1nc(N)nc(N)c1Cl)c1nc2cccc(S(C)(=O)=O)c2c(=O)n1-c1cccc(F)c1` (single isomer, unassigned) [Compound 153a], the EC50 in experiment [1] (Homo sapiens) lay within 10 to 50 nM. Moreover, in experiment [2] (setting [3]), the IC50 was in the range of 1 to 10 nM.

Take `COc1cc(F)cc(-n2c(C(C)Nc3nc(N)nc(N)c3C#N)nc3cccc(Cl)c3c2=O)c1` (single isomer, unassigned) [Compound 205a]: in experiment [1], the EC50 was < 1 nM. Besides, the concentration for half-maximal inhibition (IC50) in experiment [2] (setting [3]) lay within 1 to 10 nM.

As for `CC(Nc1nc(N)nc(N)c1C#N)c1nc2cccc(S(C)(=O)=O)c2c(=O)n1-c1cc(F)cc(F)c1` (single isomer, unassigned) [Compound 96a], the EC50 in experiment [1] (Homo sapiens) was 10 to 50 nM. For the same molecule, in experiment [2] (setting [3]), the IC50 was 1 to 10 nM.

`CC(Nc1nc(N)nc(N)c1C#N)c1nc2cccc(O)c2c(=O)n1-c1ccccc1` (single isomer, unassigned) [Compound 2a]: in experiment [1] (Homo sapiens), the EC50 is 1 to 10 nM. Besides, the IC50 in experiment [2] (setting [3]) is < 1 nM.

Turning to `Cc1ccc(F)c2nc(C(C)Nc3nc(N)nc(N)c3C#N)n(-c3ccccc3)c(=O)c12` (single isomer, unassigned) [Compound 60a], the EC50 in experiment [1] (Homo sapiens) was < 1 nM. Also, the IC50 in experiment [2] (setting [3]) is < 1 nM.

As to `Cc1c(F)ccc(-n2c(C(C)Nc3nc(N)nc(N)c3C#N)nc3cccc(Cl)c3c2=O)c1C` (single isomer, unassigned) [Compound 203a-1], in experiment [1], the EC50 is > 50 nM. The IC50 in experiment [2] (setting [3]) lay within 1 to 10 nM.

As for `CC(C)CC(Nc1nc(N)nc(N)c1C#N)c1nc2cccc(Cl)c2c(=O)n1-c1cccc(C#N)c1` (single isomer, unassigned) [Compound 167a], the EC50 in experiment [1] (Homo sapiens) was > 50 nM. In addition, in experiment [2] (setting [3]), the IC50 lay in the range of 10 to 50 nM.

As for `Cc1cccc2c(=O)n(-c3ccccc3)c(C(C)Nc3nc(N)nc(N)c3C#N)nc12` (single isomer, unassigned) [Compound 3a], the EC50 in experiment [1] (Homo sapiens) fell in the range of 10 to 50 nM. Besides, in experiment [2] (setting [3]), the IC50 fell in the range of 1 to 10 nM.

`CC(C)CC(Nc1nc(N)nc(N)c1C#N)c1nc2cccc(Cl)c2c(=O)n1-c1cccc(F)c1` (single isomer, unassigned) [Compound 168a]: the EC50 in experiment [1] (Homo sapiens) was > 50 nM. The 50% inhibitory concentration (IC50) in experiment [2] (setting [3]) was in the range of 1 to 10 nM.

Regarding `COc1cc(-n2c(C(C)Nc3nc(N)nc(N)c3C#N)nc3cccc(Cl)c3c2=O)ccc1C` (single isomer, unassigned) [Compound 184a], the EC50 in experiment [1] (Homo sapiens) is > 50 nM. The IC50 in experiment [2] (setting [3]) was in the range of 10 to 50 nM.

Regarding `CC(Nc1nc(N)nc(N)c1Cl)c1cc2cccc(Cl)c2c(=O)n1-c1ccccc1` (single isomer, unassigned) [Compound 195a], the EC50 in experiment [1] lay in the range of 1 to 10 nM. For the same molecule, in experiment [2], the IC50 is < 1 nM.

In the case of `Cc1c(F)cccc1-n1c(C(C)Nc2nc(N)nc(N)c2C#N)nc2cccc(Cl)c2c1=O` (single isomer, unassigned) [Compound 199a-2], the EC50 in experiment [1] was > 50 nM. In addition, in experiment [2] (setting [3]), the IC50 lay in the range of 1 to 10 nM.

Consider `Cc1c(F)cc(F)cc1-n1c(C(C)Nc2nc(N)nc(N)c2C#N)nc2cccc(Cl)c2c1=O` (single isomer, unassigned) [Compound 200a-2], for which the EC50 in experiment [1] was in the range of 1 to 10 nM. The IC50 in experiment [2] (setting [3]) is 10 to 50 nM.

For the molecule `Cc1ccc(C(F)F)cc1-n1c(C(C)Nc2nc(N)nc(N)c2C#N)nc2cccc(Cl)c2c1=O` (single isomer, unassigned) [Compound 188a-1], in experiment [1], the half-maximal effective concentration (EC50) fell in the range of 10 to 50 nM. In addition, the IC50 in experiment [2] (setting [3]) was 1 to 10 nM.

Consider `CC(Nc1nc(N)nc(N)c1C#N)c1nc2c(C#N)cc(F)cc2c(=O)n1-c1cc(F)cc(F)c1` (single isomer, unassigned) [Compound 161a], for which the EC50 in experiment [1] (Homo sapiens) fell in the range of 10 to 50 nM. Moreover, the IC50 in experiment [2] (setting [3]) is 10 to 50 nM.

In the case of `CC(Nc1nc(N)nc(N)c1F)c1nc2cccc(Cl)c2c(=O)n1-c1ccccc1` (single isomer, unassigned) [Compound 194a], the EC50 in experiment [1] was > 50 nM. Besides, in experiment [2] (setting [3]), the IC50 is > 50 nM.

For `Cc1cccc2c(=O)n(-c3cccc(Cl)c3)c(C(C)Nc3nc(N)nc(N)c3C#N)nc12` (single isomer, unassigned) [Compound 6a], the EC50 in experiment [1] (Homo sapiens) was > 50 nM. The IC50 in experiment [2] (setting [3]) was < 1 nM.

`CC(Nc1nc(N)nc(N)c1C#N)c1nc2ccc(F)c(Cl)c2c(=O)n1-c1cc(F)cc(C(F)F)c1` (single isomer, unassigned) [Compound 141a]: the EC50 in experiment [1] (Homo sapiens) was in the range of 10 to 50 nM. Further, in experiment [2] (setting [3]), the IC50 is 10 to 50 nM.

For `COc1cc(-n2c(C(C)Nc3nc(N)nc(N)c3C#N)nc3cccc(Cl)c3c2=O)ccc1F` (single isomer, unassigned) [Compound 186a], the EC50 in experiment [1] (Homo sapiens) is 10 to 50 nM. Besides, the IC50 in experiment [2] (setting [3]) fell in the range of 1 to 10 nM.

On to `CC(Nc1nc(N)nc(N)c1C#N)c1nc2cccc(S(C)(=O)=O)c2c(=O)n1-c1c(F)cccc1F` (single isomer, unassigned) [Compound 146a], for which, in experiment [1] (Homo sapiens), the EC50 is > 50 nM. Moreover, in experiment [2] (setting [3]), the IC50 fell in the range of 1 to 10 nM.

Consider `CC(Nc1nc(N)nc(N)c1C#N)c1nc2c(F)ccc(C#N)c2c(=O)n1-c1ccccc1` (single isomer, unassigned) [Compound 124a], for which the EC50 in experiment [1] (Homo sapiens) fell in the range of 1 to 10 nM. Besides, the IC50 in experiment [2] (setting [3]) fell in the range of 1 to 10 nM.

Take `CC(Nc1nc(N)nc(N)c1C#N)c1nc2cccc(C(F)F)c2c(=O)n1-c1ccccc1` (single isomer, unassigned) [Compound 62a]: the EC50 in experiment [1] (Homo sapiens) is < 1 nM. Further, the IC50 in experiment [2] (setting [3]) is < 1 nM.

Take `CC(Nc1nc(N)nc(N)c1C#N)c1nc2cccc(S(C)(=O)=O)c2c(=O)n1-c1ccccc1F` (single isomer, unassigned) [Compound 142a-2]: in experiment [1], the EC50 was in the range of 10 to 50 nM. For the same molecule, the IC50 in experiment [2] (setting [3]) was in the range of 1 to 10 nM.

As to `Cc1cccc2nc(C(C)Nc3nc(N)nc(N)c3C#N)n(-c3ccccc3)c(=O)c12` (single isomer, unassigned) [Compound 23a], the EC50 in experiment [1] (Homo sapiens) is < 1 nM. Besides, the IC50 in experiment [2] (setting [3]) was < 1 nM.

As to `Cc1c(F)ccc(-n2c(C(C)Nc3nc(N)nc(N)c3C#N)nc3cccc(Cl)c3c2=O)c1C` (single isomer, unassigned) [Compound 203a-2], in experiment [1], the EC50 lay in the range of 10 to 50 nM. The IC50 in experiment [2] (setting [3]) was > 50 nM.

`CC(Nc1nc(N)nc(N)c1C#N)c1nc2c(F)cccc2c(=O)n1-c1ccccc1` (single isomer, unassigned) [Compound 58a]: in experiment [1] (Homo sapiens), the EC50 fell in the range of 1 to 10 nM. In addition, the IC50 in experiment [2] (setting [3]) lay in the range of 1 to 10 nM.
